According to patent US12024507B2, “Compounds as GLP-1R agonists” (Terns Pharmaceuticals, Inc., priority 2021, dated 2024):

Assay: Passive permeability and efflux ratio in Caco-2 cell monolayers
Assay type: in vitro ADME
Conditions: human, Caco-2, 5 μM, pH 7.4, 120 minutes; for Papp A→B at 120 min, 5 μM: apical to basolateral; for Papp B→A at 120 min, 5 μM: basolateral to apical
Experimental: Caco-2 cells (clone C2BBe1) were obtained from American Type Culture Collection (Manassas, VA). Cell monolayers were grown to confluence on collagen-coated, microporous membranes in 12-well assay plates. Details of the plates and their certification are shown below. The permeability assay buffer was Hanks' balanced salt solution containing 10 mM HEPES and 15 mM glucose at a pH of 7.4. The buffer in the receiver chamber also contained 1% bovine serum albumin. The dosing solution concentration was 5 μM of test article in the assay buffer. Cell monolayers were dosed on the apical side (A-to-B) or basolateral side (B-to-A) and incubated at 37° C. with 5% CO2 in a humidified incubator. Samples were taken from the donor and receiver chambers at 120 minutes. Each determination was performed in duplicate. The flux of lucifer yellow was also measured post-experimentally for each monolayer to ensure no damage was inflicted to the cell monolayers during the flux period. All samples were assayed by LC-MS/MS using electrospray ionization. The apparent permeability (Papp) and percent recovery were calculated as follows: Papp=(dCr/dt)×Vr/(A×CA) (1) Percent Recovery=100×((Vr×Cr^final)+(Vd×Cd^final))/(Vd×CN) (2), where, dCr/dt is the slope of the cumulative receiver concentration versus time in μM s^−1; Vr is the volume of the receiver compartment in cm^3; Vd is the volume of the donor compartment in cm^3; A is the area of the insert (1.13 cm^2 for 12-well); CA is the average of the nominal dosing concentration and the measured 120-minute donor concentration in μM; CN is the nominal concentration of the dosing solution in μM; Cr^final is the cumulative receiver concentration in μM at the end of the incubation period; Cd^final is the concentration of the donor in μM at the end of the incubation period. Efflux ratio (ER) is defined as Papp (B-to-A)/Papp (A-to-B).

Papp A→B at 120 min, 5 μM | Papp B→A at 120 min, 5 μM | SMILES
46.9 ×10⁻⁶ cm/s | 51.1 ×10⁻⁶ cm/s | N#Cc1ccc(COc2cccc(C3CCN(Cc4nc5ccc(-c6nc(=O)[nH]o6)cc5n4Cc4cncs4)CC3)n2)c(F)c1 [Compound 13, 3-fluoro-4-(((6-(1-((6-(3-oxo-2,3-dihydro-1,2,4-oxadiazol-5-yl)-1-(thiazol-5-ylmethyl)-1H-benzo[d]imidazol-2-yl)methyl)piperidin-4-yl)pyridin-2-yl)oxy)methyl)benzonitrile]
1.8 ×10⁻⁶ cm/s | 18.8 ×10⁻⁶ cm/s | N#Cc1ccc(COc2cccc(C3CCN(Cc4nc5ccc(-c6nnn[nH]6)cc5n4C[C@@H]4CCO4)CC3)n2)c(F)c1 [Compound 8]
